Source: PMC3468400, “Pharmacokinetic profiles of artesunate following multiple intravenous doses of 2, 4, and 8 mg/kg in healthy volunteers: Phase 1b study” (Malaria Journal, 2012)
Like-named read-outs stand apart in the source and are kept apart here.

Legend:
[1] = tested on: severe falciparum malaria; conditions: SEAQUAMAT, cited from earlier work
[2] = human, in vivo, po; cited from earlier work
parasitaemia = conditions: cited from earlier work
[3] = human, in vivo, cited from earlier work
[4] = Tolerability and safety of multiple intravenous AS doses in healthy volunteers; type: in vivo, human
Description: The study was a double blind, ascending multiple doses, alternating group, safety, tolerance, and PK study. Injectable AS daily for three days was administered intravenously to three groups of the subjects using alternating doses of 2, 4, and 8 mg. All eight subjects in each dose group received either the AS (six subjects) or placebo (two subjects) in a pre-randomized manner. The study physician, after verifying the code with a study nurse, would then inject either the drug or placebo into an injection port at the pre-measured dose over about 2 min as a short-term intravenous infusion; the study nurse recorded the time of study drug reconstitution, infusion start and completion of injection. When the injection was completed, the study nurse recorded tolerance of injection to include both inspection of site and subjects’ responses. Subjects were provided a light lunch at approximately 4 hours after dosing. Normal activities, excluding strenuous exercise, were permitted four hours after dosing. […] During the multiple-dose period, samples were collected immediately before morning dose on days 2 and 3 for additional trough values. All the samples were stored at −80 °C until shipment and were then shipped to a bio-analytical GLP laboratory, Midwest Research Institute (MRI), in Kansas City, MO, USA. The human use protocol numbers for the Phase 1 trial are: USUHS #G183RW; WRIAR #1128; and HSRRB #A-13276.

[5] = tested on: severe falciparum malaria; conditions: AQUAMAT, cited from earlier work
[6] = severe malaria patients, intravenous treatment
[7] = 2, 4, 8 mg/kg iv daily for three days

C[C@H]1[C@H](OC(=O)CCC(=O)O)O[C@@H]2O[C@@]3(C)CC[C@H]4[C@H](C)CC[C@@H]1[C@@]24OO3 [AS, 4-(10’dihydro-artemisinin-oxymethyl) succinate]
mortality rate [1, 6]: 15% | reduction of mortality versus quinine [1]: 35% | Cmax and AUC on the last dose day as compared to the first day [2]: about one-third to one-seventh | mean time for clearance of half the parasitaemia (PC50) (parasitaemia; human, in vivo): 3.18 h | duration of the lag phase of the parasitaemia curve (parasitaemia; intravenous AS, previous clinical trials): 1.92 h | lag time of the parasitaemia curve (parasitaemia; oral AS, previous clinical trials): 2.81 h | mean peak level (Cmax) ([3]; iv): 11,343 ng/ml | Cmax ([3]; po): 1052 ng/mL | dose dependence of adverse events [4, 7]: no dose-dependent increases in any adverse events | haemodynamic or ECG effects [4, 7]: No deleterious haemodynamic or ECG effects were seen | other laboratory abnormalities [4, 7]: no other clinically significant laboratory abnormalities detected | duration of transient sensation of altered or unusual taste ([4]; associated with higher doses of AS, all cases): less than 30 minutes | tolerability ([4]; daily iv for three days, doses up to 8 mg/kg, healthy volunteers): well tolerated and no serious side effects were observed and safe | reticulocyte count ([4]; peaked four days after dosing, returned to normal by study day 7 in most cases, day 10 in all): dose-related decrease | mortality rate [5, 6]: 8.5% | reduction of mortality versus quinine [5]: 22.5%
